Measured values as given in patent US20230277568A1, “METHOD OF TREATMENT FOR […] PSILOCIN INFUSION” (Eleusis Therapeutics US, Inc., priority 2020, published 2023).
“Also recorded” adds a separate entry of the source.

Legend:
WKY rats = assay: Forced swim test in rat model of depression; format: in vivo; conditions: FST 21 days after injection
Protocol: A rat model of depression was used to assess the antidepressant effect of psilocin alone or in combination with lorazepam. WKY rats were divided into 3 groups (n=8 animals per group) and treated with (i) 1 mg/kg of psilocin injected as a bolus dose into the tail vein (PSI); (ii) 1.8 mg/kg of lorazepam injected 30 i.p. minutes prior to a 1 mg/kg tail vein injection of psilocin (P+L); or (iii) saline (SAL; as a control group). The dose of lorazepam was chosen to be a moderate/low non-sedating but anxiolytic dose in rats after consultation with an expert in the field of benzodiazepine's effects in rats.
After injection treatment, rats were maintained in their home cage for three weeks (21 days) prior to testing by forced swim test (FST) as described in Hibicke et al., ACS Chem. Neurosci. 2020, 11, 6, 864-871.
Forced Swim Test methodology: During a pre-exposure, rats were placed into a plastic cylindrical tank (114 cm×30.5 cm) that contained 30 cm of water at 28-30° C. The water depth was such that the rats could not support themselves by touching the bottom of the tank with their hind paws, and their tails could not touch the bottom of the tank while keeping their noses above water. After a 15 min swim, the rats were removed, dried with paper towels, and replaced in their home cages. Fresh water was used for each animal. For the testing, a video camera was mounted to the side of the tank, and the rats were exposed to a 5 min swim under the conditions described above and then removed, dried with paper towels, and returned to their home cages. The 5 min swim was recorded for later scoring for immobility, swimming, and climbing. FST scoring was performed by a trained scorer. Immobility was defined as no active attempts to escape while maintaining a floating posture in which the rats make only the movements necessary to keep their heads above water. Swimming was defined as actively attempting escape with motions directed outward against the wall of the cylinder. Climbing was defined as actively attempting escape with motions directed upward against the wall of the cylinder.

5-HT2A receptor = 5-HT2A receptor (Homo sapiens, UniProt P28223); conditions: background statement; cited from earlier work
5-HT2A receptor, sequence (P28223 whole entry): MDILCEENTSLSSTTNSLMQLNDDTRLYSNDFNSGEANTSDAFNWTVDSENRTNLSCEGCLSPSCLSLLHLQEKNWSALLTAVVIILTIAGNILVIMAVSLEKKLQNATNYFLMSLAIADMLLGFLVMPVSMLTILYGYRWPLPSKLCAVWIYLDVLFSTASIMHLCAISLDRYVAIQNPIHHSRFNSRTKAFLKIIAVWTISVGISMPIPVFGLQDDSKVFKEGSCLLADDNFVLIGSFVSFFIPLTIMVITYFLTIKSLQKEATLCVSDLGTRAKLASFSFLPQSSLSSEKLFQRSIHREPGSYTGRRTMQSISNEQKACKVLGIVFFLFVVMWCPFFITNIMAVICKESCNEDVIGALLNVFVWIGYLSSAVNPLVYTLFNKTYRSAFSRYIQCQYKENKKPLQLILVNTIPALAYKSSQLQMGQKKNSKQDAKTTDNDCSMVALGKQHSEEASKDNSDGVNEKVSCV

[1] = 1.8 mg/kg lorazepam i.p. 30 minutes prior to 1 mg/kg i.v. psilocin

Row | Compound | effect of lorazepam pretreatment on the effects of psilocin, immobility measure (WKY rats; [1]) | effect of lorazepam pretreatment on the effects of psilocin, swimming behavior (WKY rats; [1]) | effect of lorazepam pretreatment on the effects of psilocin, immobility measure (WKY rats; 1.8 mg/kg lorazepam i.p. 30 minutes prior to 1 mg/kg i.v. psilocin, listed as lorazepam) | antidepressant-like behaviors in forced swim test (WKY rats; 1 mg/kg psilocin single i.v. bolus (tail vein), 1 mg/kg) | affinity for the 5-HT2A receptor (5-HT2A receptor)
1 | O=C1Nc2ccc(Cl)cc2C(c2ccccc2Cl)=NC1O (centres unmarked) [Lorazepam] | slight but significant effect to blunt the effects of psilocin | no significant effect | slight, but significant effect |  | 
2 | CN(C)CCc1c[nH]c2cccc(O)c12 [psilocin, 4-hydroxy-N,N-dimethyltrypamine] |  |  |  | as efficacious in producing long-lasting antidepressant-like behaviors in this model as a single i.p. administration of psilocybin of the same dose; also recorded: as efficacious in producing long-lasting antidepressant-like behaviors in our model as a single i.p. administration of psilocybin of the same dose | high affinity
